Measured values reported in publication PMC5218480 (PLoS ONE, 2017).

Tested on: MV-4-11 cells
Experiment: Gene expression microarray analysis (Affymetrix PrimeView) and GSEA
Format: cell-based, human
Design: RFU PODN (11730768_x_at) / Fold change /veh PODN (11730768_x_at) / RFU LINC00158 (11744669_a_at) / Fold change /veh LINC00158 (11744669_a_at) / RFU DUSP10 (11751237_a_at) / Fold change /veh DUSP10 (11751237_a_at) / RFU ID3 (11757404_x_at) / Fold change /veh ID3 (11757404_x_at) / RFU PLEKHG5 (11737974_s_at) / Fold change /veh PLEKHG5 (11737974_s_at) / RFU LRRC4B (11730491_at) / Fold change /veh LRRC4B (11730491_at) / RFU GIMAP4 (11747438_a_at) / Fold change /veh GIMAP4 (11747438_a_at) / RFU KRT8 (11758183_x_at) / Fold change /veh KRT8 (11758183_x_at) / RFU CNN1 (11734310_a_at) / Fold change /veh CNN1 (11734310_a_at) / RFU VPS37D (11726825_at) / Fold change /veh VPS37D (11726825_at) / RFU C10orf10 (11716522_x_at) / Fold change /veh C10orf10 (11716522_x_at) / RFU KIR2DL2 /// KIR2DL4 /// KIR2DL5A /// KIR2DL5B /// KIR2DS1 /// KIR2DS2 /// KIR2DS3 /// KIR2DS4 /// KIR3DL3 /// KIR3DL3 /// KIR3DS1 (11738374_at) / Fold change /veh KIR2DL2 /// KIR2DL4 /// KIR2DL5A /// KIR2DL5B /// KIR2DS1 /// KIR2DS2 /// KIR2DS3 /// KIR2DS4 /// KIR3DL3 /// KIR3DL3 /// KIR3DS1 (11738374_at) / RFU C1QL1 (11718748_at) / Fold change /veh C1QL1 (11718748_at) / RFU TMPRSS4 (11747572_a_at) / Fold change /veh TMPRSS4 (11747572_a_at) / RFU HAMP (11756126_x_at) / Fold change /veh HAMP (11756126_x_at) / RFU RNFT2 (11725882_a_at) / Fold change /veh RNFT2 (11725882_a_at) / RFU NR4A2 (11747474_a_at) / Fold change /veh NR4A2 (11747474_a_at) / RFU ABCC12 (11746883_a_at) / Fold change /veh ABCC12 (11746883_a_at) / RFU TMEM136 (11760407_x_at) / Fold change /veh TMEM136 (11760407_x_at) / RFU CLDN22 /// WWC2 (11732394_at) / Fold change /veh CLDN22 /// WWC2 (11732394_at) / RFU HLA-DPB1 (11760878_x_at) / Fold change /veh HLA-DPB1 (11760878_x_at) / RFU SPINT1 (11716480_a_at) / Fold change /veh SPINT1 (11716480_a_at) / RFU GAP43 (11754022_s_at) / Fold change /veh GAP43 (11754022_s_at) / RFU A4GNT (11735810_at) / Fold change /veh A4GNT (11735810_at) / RFU PRB3 (11715151_x_at) / Fold change /veh PRB3 (11715151_x_at) / RFU TUBB4B (11761932_at) / Fold change /veh TUBB4B (11761932_at) / RFU CAPN14 (11732068_a_at) / Fold change /veh CAPN14 (11732068_a_at) / RFU TMCC2 (11721928_a_at) / Fold change /veh TMCC2 (11721928_a_at) / RFU IRGQ (11745062_a_at) / Fold change /veh IRGQ (11745062_a_at) / RFU FAM174B (11720279_a_at) / Fold change /veh FAM174B (11720279_a_at) / RFU TMPRSS4 (11748680_a_at) / Fold change /veh TMPRSS4 (11748680_a_at) / RFU FAM212B (11763350_a_at) / Fold change /veh FAM212B (11763350_a_at) / RFU PLEKHG5 (11743358_a_at) / Fold change /veh PLEKHG5 (11743358_a_at) / RFU ZSCAN30 (11745921_a_at) / Fold change /veh ZSCAN30 (11745921_a_at) / RFU CMKLR1 (11741424_a_at) / Fold change /veh CMKLR1 (11741424_a_at) / RFU LOC101060620 /// MAPK8IP1 (11723275_at) / Fold change /veh LOC101060620 /// MAPK8IP1 (11723275_at) / RFU SPTSSB (11747773_x_at) / Fold change /veh SPTSSB (11747773_x_at) / RFU PRSS12 (11739890_at) / Fold change /veh PRSS12 (11739890_at) / RFU BIN1 (11741810_x_at) / Fold change /veh BIN1 (11741810_x_at) / RFU WNT11 (11732464_a_at) / Fold change /veh WNT11 (11732464_a_at) / RFU C10orf10 (11716521_a_at) / Fold change /veh C10orf10 (11716521_a_at) / RFU C5orf56 (11738089_at) / Fold change /veh C5orf56 (11738089_at) / RFU CYB561 (11721691_x_at) / Fold change /veh CYB561 (11721691_x_at) / RFU ANKRD19P (11752326_a_at) / Fold change /veh ANKRD19P (11752326_a_at) / RFU OR2T12 /// OR2T33 /// OR2T8 (11738714_s_at) / Fold change /veh OR2T12 /// OR2T33 /// OR2T8 (11738714_s_at) / RFU VCAN (11748164_a_at) / Fold change /veh VCAN (11748164_a_at) / RFU JSRP1 (11732532_at) / Fold change /veh JSRP1 (11732532_at) / RFU KRTAP10-11 (11738290_x_at) / Fold change /veh KRTAP10-11 (11738290_x_at) / RFU MYO3A (11730013_a_at) / Fold change /veh MYO3A (11730013_a_at) / RFU EBF3 (11725865_a_at) / Fold change /veh EBF3 (11725865_a_at) / RFU CAMK2N1 (11719241_x_at) / Fold change /veh CAMK2N1 (11719241_x_at) / RFU C5orf56 (11738088_a_at) / Fold change /veh C5orf56 (11738088_a_at) / RFU OLFML3 (11715873_a_at) / Fold change /veh OLFML3 (11715873_a_at) / RFU LOC100653217 /// NTM (11731650_a_at) / Fold change /veh LOC100653217 /// NTM (11731650_a_at) / RFU MAPK11 (11762145_a_at) / Fold change /veh MAPK11 (11762145_a_at) / RFU FIZ1 (11724087_x_at) / Fold change /veh FIZ1 (11724087_x_at) / RFU OASL (11726364_x_at) / Fold change /veh OASL (11726364_x_at) / RFU SOX15 (11748057_x_at) / Fold change /veh SOX15 (11748057_x_at) / RFU CD79A (11719716_a_at) / Fold change /veh CD79A (11719716_a_at) / RFU HIST1H1D (11736915_at) / Fold change /veh HIST1H1D (11736915_at) / RFU CASKIN2 (11723855_a_at) / Fold change /veh CASKIN2 (11723855_a_at) / RFU LOC730098 (11760151_x_at) / Fold change /veh LOC730098 (11760151_x_at) / RFU OR4N2 (11742367_at) / Fold change /veh OR4N2 (11742367_at) / RFU PRRT2 (11749266_a_at) / Fold change /veh PRRT2 (11749266_a_at) / RFU SNX32 (11753110_a_at) / Fold change /veh SNX32 (11753110_a_at) / RFU CDHR5 (11726645_a_at) / Fold change /veh CDHR5 (11726645_a_at) / RFU RCAN1 (11760418_a_at) / Fold change /veh RCAN1 (11760418_a_at) / RFU FAM167A (11723789_a_at) / Fold change /veh FAM167A (11723789_a_at) / RFU FAM26E (11764081_at) / Fold change /veh FAM26E (11764081_at) / RFU ISYNA1 (11749810_s_at) / Fold change /veh ISYNA1 (11749810_s_at) / RFU ACY1 (11761880_at) / Fold change /veh ACY1 (11761880_at) / RFU 11764098_at / Fold change /veh 11764098_at / RFU SAMD14 (11745864_x_at) / Fold change /veh SAMD14 (11745864_x_at) / RFU NPB (11741838_a_at) / Fold change /veh NPB (11741838_a_at) / RFU TMPRSS6 (11731388_a_at) / Fold change /veh TMPRSS6 (11731388_a_at) / RFU KRTAP10-2 (11738614_at) / Fold change /veh KRTAP10-2 (11738614_at) / RFU ARHGAP8 /// PRR5-ARHGAP8 (11727945_x_at) / Fold change /veh ARHGAP8 /// PRR5-ARHGAP8 (11727945_x_at) / RFU KRTAP5-7 /// NADSYN1 (11734609_at) / Fold change /veh KRTAP5-7 /// NADSYN1 (11734609_at) / RFU RASL12 (11751679_a_at) / Fold change /veh RASL12 (11751679_a_at) / RFU CDKN2B (11736163_a_at) / Fold change /veh CDKN2B (11736163_a_at) / RFU PRF1 (11729649_at) / Fold change /veh PRF1 (11729649_at) / RFU, ZNF638 /// ZNF638-IT1 / Fold change vs veh, ZNF638 /// ZNF638-IT1 / RFU, PANK3 / Fold change vs veh, PANK3 / RFU, SH3YL1 / Fold change vs veh, SH3YL1 / RFU, ZEB2 / Fold change vs veh, ZEB2 / RFU, NRIP1 / Fold change vs veh, NRIP1 / RFU, PTTG1IP / Fold change vs veh, PTTG1IP / RFU, CAPN2 / Fold change vs veh, CAPN2 / RFU, MED14 / Fold change vs veh, MED14 / RFU, SNORA58 / Fold change vs veh, SNORA58 / RFU, C1orf63 / Fold change vs veh, C1orf63 / RFU, LRRFIP1 / Fold change vs veh, LRRFIP1 / RFU, NDUFAF7 / Fold change vs veh, NDUFAF7 / RFU, SLC12A2 / Fold change vs veh, SLC12A2 / RFU, IBTK / Fold change vs veh, IBTK / RFU, ESF1 / Fold change vs veh, ESF1 / Fold change vs veh, TMEM50B / RFU, TAOK1 / Fold change vs veh, TAOK1 / RFU, ACBD3 / Fold change vs veh, ACBD3 / RFU, TMA16 / Fold change vs veh, TMA16 / RFU, RWDD3 / Fold change vs veh, RWDD3 / RFU, BCAT1 / Fold change vs veh, BCAT1 / RFU, EDEM3 / Fold change vs veh, EDEM3 / RFU, TMEM33 / Fold change vs veh, TMEM33 / RFU, WDR75 / Fold change vs veh, WDR75 / RFU, AHCTF1 / Fold change vs veh, AHCTF1 / RFU, TFRC / Fold change vs veh, TFRC / RFU, ZDHHC17 / Fold change vs veh, ZDHHC17 / RFU, NOM1 / Fold change vs veh, NOM1 / RFU, ARL8B / Fold change vs veh, ARL8B / RFU, ZBTB11 / Fold change vs veh, ZBTB11 / RFU, TAMM41 / Fold change vs veh, TAMM41 / RFU, KIAA1704 /// LOC100996395 / Fold change vs veh, KIAA1704 /// LOC100996395 / RFU, ING1 / Fold change vs veh, ING1 / RFU, TRMT61B / Fold change vs veh, TRMT61B / RFU, FUBP3 / Fold change vs veh, FUBP3 / RFU, TP53 / Fold change vs veh, TP53 / RFU, TNKS2 / Fold change vs veh, TNKS2 / RFU, ZFP14 / Fold change vs veh, ZFP14 / RFU, ACTR2 / Fold change vs veh, ACTR2 / RFU, PPP3R1 / Fold change vs veh, PPP3R1 / RFU, PIK3R1 / Fold change vs veh, PIK3R1 / RFU, HNRNPA1 / Fold change vs veh, HNRNPA1 / RFU, RNF170 / Fold change vs veh, RNF170 / RFU, ZNF28 / Fold change vs veh, ZNF28 / RFU, RNGTT / Fold change vs veh, RNGTT / RFU, OGT / Fold change vs veh, OGT / RFU, BRD1 / Fold change vs veh, BRD1 / RFU, MARS / Fold change vs veh, MARS / RFU, ZNF655 / Fold change vs veh, ZNF655 / RFU, FAHD1 / Fold change vs veh, FAHD1 / RFU, BDP1 / Fold change vs veh, BDP1 / RFU, LRRCC1 / Fold change vs veh, LRRCC1 / RFU, ARID1A / Fold change vs veh, ARID1A / RFU, ZNF146 / Fold change vs veh, ZNF146 / RFU, ZNF330 / Fold change vs veh, ZNF330 / RFU, GPN3 / Fold change vs veh, GPN3 / RFU, C9orf123 / Fold change vs veh, C9orf123 / RFU, N4BP2L2 / Fold change vs veh, N4BP2L2 / RFU, ARFIP1 / Fold change vs veh, ARFIP1 / RFU, FAM179B / Fold change vs veh, FAM179B / RFU, BCL10 / Fold change vs veh, BCL10 / RFU, UHRF1BP1L / Fold change vs veh, UHRF1BP1L / RFU, BET1 / Fold change vs veh, BET1 / RFU, CNOT2 / Fold change vs veh, CNOT2 / RFU, ZNF268 / Fold change vs veh, ZNF268 / Fold change vs veh, ZNF507 / RFU, DGCR2 / Fold change vs veh, DGCR2 / RFU, WDSUB1 / Fold change vs veh, WDSUB1 / Fold change vs veh, HSP90B1 /// MIR3652 / RFU, ADSS / Fold change vs veh, ADSS / RFU, GK / Fold change vs veh, GK / RFU, ZNF148 / Fold change vs veh, ZNF148 / RFU, TAF9 / Fold change vs veh, TAF9 / RFU, SLC1A5 / Fold change vs veh, SLC1A5 / RFU, SLMO2 / Fold change vs veh, SLMO2 / RFU, ABCC4 / Fold change vs veh, ABCC4 / RFU, LOC101060439 /// RAP1B / Fold change vs veh, LOC101060439 /// RAP1B / RFU, RFX7 / Fold change vs veh, RFX7 / RFU, GTPBP10 / Fold change vs veh, GTPBP10 / RFU, CNEP1R1 / Fold change vs veh, CNEP1R1 / RFU, BIVM-ERCC5 /// ERCC5 / Fold change vs veh, BIVM-ERCC5 /// ERCC5 / RFU, ILF3 / Fold change vs veh, ILF3 / RFU 11762660_at / Fold change /veh 11762660_at / RFU VCAN (11757783_s_at) / Fold change /veh VCAN (11757783_s_at) / RFU DDX43 (11728927_at) / Fold change /veh DDX43 (11728927_at) / RFU KRT8 (11758188_x_at) / Fold change /veh KRT8 (11758188_x_at) / RFU NKD1 (11759106_at) / Fold change /veh NKD1 (11759106_at) / RFU SRD5A1 (11742802_a_at) / Fold change /veh SRD5A1 (11742802_a_at) / RFU TPSAB1 /// TPSB2 (11721975_s_at) / Fold change /veh TPSAB1 /// TPSB2 (11721975_s_at) / RFU GSTM3 (11746129_a_at) / Fold change /veh GSTM3 (11746129_a_at) / RFU IL23R (11737362_x_at) / Fold change /veh IL23R (11737362_x_at) / RFU TMEM51 (11727254_a_at) / Fold change /veh TMEM51 (11727254_a_at) / RFU PIWIL2 (11732686_x_at) / Fold change /veh PIWIL2 (11732686_x_at) / RFU ORM1 (11744905_x_at) / Fold change /veh ORM1 (11744905_x_at) / RFU CCDC152 (11743942_at) / Fold change /veh CCDC152 (11743942_at) / RFU ECM1 (11717891_a_at) / Fold change /veh ECM1 (11717891_a_at) / RFU IL23R (11748794_a_at) / Fold change /veh IL23R (11748794_a_at) / RFU TNFAIP8L3 (11732012_x_at) / Fold change /veh TNFAIP8L3 (11732012_x_at) / RFU MBOAT4 (11741988_at) / Fold change /veh MBOAT4 (11741988_at) / RFU 11764193_at / Fold change /veh 11764193_at / RFU TMEM53 (11763286_at) / Fold change /veh TMEM53 (11763286_at) / RFU MAGEB2 (11727129_at) / Fold change /veh MAGEB2 (11727129_at) / RFU TMEM200A (11744735_a_at) / Fold change /veh TMEM200A (11744735_a_at) / RFU CCDC152 (11751479_a_at) / Fold change /veh CCDC152 (11751479_a_at) / RFU FAM211A (11726209_a_at) / Fold change /veh FAM211A (11726209_a_at) / RFU RGS16 (11746705_a_at) / Fold change /veh RGS16 (11746705_a_at) / RFU VCAN (11755009_s_at) / Fold change /veh VCAN (11755009_s_at) / RFU RHOB (11743442_s_at) / Fold change /veh RHOB (11743442_s_at) / RFU RGS16 (11720943_a_at) / Fold change /veh RGS16 (11720943_a_at) / RFU RGS16 (11720944_at) / Fold change /veh RGS16 (11720944_at) / RFU, VPS4B / Fold change vs veh, VPS4B / RFU, CREB1 / Fold change vs veh, CREB1 / RFU, DNAJC13 / Fold change vs veh, DNAJC13 / RFU, GNAQ / Fold change vs veh, GNAQ / RFU, CDK5R1 / Fold change vs veh, CDK5R1 / RFU, ZRANB3 / Fold change vs veh, ZRANB3 / RFU, CUL4A / Fold change vs veh, CUL4A / RFU, CCNY / Fold change vs veh, CCNY / RFU, UFL1 / Fold change vs veh, UFL1 / RFU, COG3 / Fold change vs veh, COG3 / RFU, DIAPH2 / Fold change vs veh, DIAPH2 / RFU, SKA2 / Fold change vs veh, SKA2 / RFU, AFF3 / Fold change vs veh, AFF3 / RFU, LMF1 / Fold change vs veh, LMF1 / RFU, IPO11 / Fold change vs veh, IPO11 / RFU, DFFB / Fold change vs veh, DFFB / RFU, FOXP1 / Fold change vs veh, FOXP1 / RFU, CARD8 / Fold change vs veh, CARD8 / RFU, STRN3 / Fold change vs veh, STRN3 / RFU, ADK / Fold change vs veh, ADK / RFU, RASSF2 / Fold change vs veh, RASSF2 / RFU, WIPF1 / Fold change vs veh, WIPF1 / RFU, LARP1B / Fold change vs veh, LARP1B / RFU, RASA1 / Fold change vs veh, RASA1 / RFU, RB1 / Fold change vs veh, RB1 / RFU, PPFIA1 / Fold change vs veh, PPFIA1 / RFU, MAT2A / Fold change vs veh, MAT2A / RFU, CCT5 / Fold change vs veh, CCT5 / RFU, WDR92 / Fold change vs veh, WDR92 / RFU, CUX1 / Fold change vs veh, CUX1 / RFU, TTC7A / Fold change vs veh, TTC7A / RFU, TMEM135 / Fold change vs veh, TMEM135 / RFU, DEPTOR / Fold change vs veh, DEPTOR / RFU, CPM / Fold change vs veh, CPM / RFU, DNAJB6 / Fold change vs veh, DNAJB6 / RFU, CACNA2D3 / Fold change vs veh, CACNA2D3 / RFU, DTX4 / Fold change vs veh, DTX4 / RFU, TFCP2 / Fold change vs veh, TFCP2 / RFU, GMCL1 /// GMCL1P1 / Fold change vs veh, GMCL1 /// GMCL1P1 / RFU, AEBP2 / Fold change vs veh, AEBP2 / RFU, SNHG1 /// SNORD22 /// SNORD25 /// SNORD26 /// SNORD27 /// SNORD28 /// SNORD29 /// SNORD31 / Fold change vs veh, SNHG1 /// SNORD22 /// SNORD25 /// SNORD26 /// SNORD27 /// SNORD28 /// SNORD29 /// SNORD31 / Fold change (Aza/veh), C12orf56 (ProbeSet 11735607_a_at) / Fold change (ACY-1035/veh), C12orf56 (ProbeSet 11735607_a_at) / Fold change (Aza/veh), FGFR1OP (ProbeSet 11751329_s_at) / Fold change (ACY-1035/veh), FGFR1OP (ProbeSet 11751329_s_at) / Fold change (Aza/veh), VPS36 (ProbeSet 11739960_a_at) / Fold change (ACY-1035/veh), VPS36 (ProbeSet 11739960_a_at) / RFU SYPL1 (11715823_x_at) / Fold change /veh SYPL1 (11715823_x_at) / RFU IGFBP7 (11715501_s_at) / Fold change /veh IGFBP7 (11715501_s_at) / RFU REEP3 (11722064_at) / Fold change /veh REEP3 (11722064_at) / RFU IGLL1 (11728026_x_at) / Fold change /veh IGLL1 (11728026_x_at): dose or concentration left out as unconfirmed
Details: MV-4-11 cells, 48 hours

SMILES: Nc1ncn([C@@H]2O[C@H](CO)[C@@H](O)[C@H]2O)c(=O)n1 [azacitidine]
- RFU C1QL1 (11718748_at): 641.97 RFU
